# According to patent publication US20050153303A1, “Method of mutagenic chain reaction” (priority 2003, published 2005):
# “And” between values parts separate entries of the source, which are not always exact repeats. Equal entries are not always repeated. Where two headings read alike, the source gives them in different places.
# How the values were obtained:
# [1] = target: T1, Ventr (exo-) DNA polymerase (Thermococcus litoralis, UniProt P30317, D141A/DEL1082-1471/DEL495-1032/E143A); assay type: biochemical
# T1 construct: purchased New England Biolabs
# T1 sequence (P30317 other isoform, or with tags, fused parts or gaps D141A/E143A/DEL495-1032/DEL1082-1471): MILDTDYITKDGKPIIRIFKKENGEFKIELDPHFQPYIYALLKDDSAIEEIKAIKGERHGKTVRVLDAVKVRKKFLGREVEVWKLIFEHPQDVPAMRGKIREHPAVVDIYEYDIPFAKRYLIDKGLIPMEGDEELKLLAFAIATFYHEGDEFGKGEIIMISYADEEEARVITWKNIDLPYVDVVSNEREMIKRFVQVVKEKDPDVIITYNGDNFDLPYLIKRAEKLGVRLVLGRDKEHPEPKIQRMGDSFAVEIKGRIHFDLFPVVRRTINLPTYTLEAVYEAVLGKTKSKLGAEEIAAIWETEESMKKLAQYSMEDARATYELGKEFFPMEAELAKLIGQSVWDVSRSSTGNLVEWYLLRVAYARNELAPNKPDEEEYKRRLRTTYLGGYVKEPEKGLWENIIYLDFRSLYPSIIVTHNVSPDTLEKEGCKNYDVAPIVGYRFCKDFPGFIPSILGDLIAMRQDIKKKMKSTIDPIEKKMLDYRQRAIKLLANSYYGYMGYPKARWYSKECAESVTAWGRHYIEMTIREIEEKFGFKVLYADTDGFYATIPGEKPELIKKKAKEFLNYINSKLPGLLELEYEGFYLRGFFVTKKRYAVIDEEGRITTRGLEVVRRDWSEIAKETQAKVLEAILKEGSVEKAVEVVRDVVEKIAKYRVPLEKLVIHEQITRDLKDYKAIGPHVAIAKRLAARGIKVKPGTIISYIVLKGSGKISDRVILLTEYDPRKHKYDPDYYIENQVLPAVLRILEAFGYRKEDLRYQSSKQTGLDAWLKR
# Protocol: The template used for PCR is the gene coding for MB-1 His (384 bp) (Grundy J. et al., (1998) Journal of Biotechnology, 63:9-15) cloned in the 6.6kb pMAL-c2 vector (New England Biolabs, cat no. M0257S). The template was obtained by plasmid purification of E. coli with XL-1 Blue (Stratagene) Miniprep protocol (Qiagen) and quantified using UV spectrometry.
# (§1) Control PCR condition: 2 units of Vent exo^−DNA polymerase were used in a 50 μL reaction volume containing 200 μM of each dNTPs, 10mM KCl, 10mM (NH4)2SO4, […] pH 8.8, 2mM MgSO4, 0.1% Triton™ X-100, 0.2 μM of each primers and 10ng of plasmid DNA. PCR were performed in a GeneAmp PCR system 9700 (Perkin-Elmer) as follows: 5 min at 95° C. (first denaturation), followed by 30 cycles of polymerisation [30 s at 95° C. (denaturation), 30 s at 65° C. (annealing) , 2 min at 72° C. (polymerisation)].
# (§2) When a modified dNTPs ratio was used, fmal concentrations were 200 μM for dATP and dTTP and 800 μM for dCTP and dGTP.
# pMAL-c2 vector (New England Biolabs) was digested with SacI and HindIII endonucleases (New England Biolabs) and gel purified (1% agarose) using Qiaex gel extraction kit (Qiagen) and Agarose A from LAB MAT. The 384 bp PCR products were also gel purified. […] The purified products were then concatenated in a kination/ligation using T4 Polynucleotide kinase and T4 DNA ligase (New England Biolabs) for 3 hours at room temperature followed by a restriction digestion using SacI and HindIII endonucleases for 5 hours at 37° C. Then, the digested PCR products were purified using PCR purification kit (Qiagen) and ligated with pMAL-c2 vector using T4 DNA ligase at 16° C. overnight.
# 5 μL of ligation product mixed with 50 μL of E. coli XL-1 Blue hypercompetent cells were incubated on ice for 30 min, heatshocked at 42° C. for 45 sec and re-incubated on ice for 2 min. Then, 1mL of SOC medium was added and the mixture was incubated for 1 hour at 37° C. with shaking. Transformed Cells were then selected on LB agar plates containing 100 μg/mL ampicillin.
# Plasmids from transformant colonies were purified with Qiaprep Spin miniprep kit (Qiagen) and digested with SacI/HindIII to confirm the presence of the 384 bp fragment corresponding to MB-1 His gene. Plasmids were then sequenced by the dye-terminator method (Service d'analyse et de synthèse, Université Laval). Complete sequences were analysed with LFASTA software (Chao K. M. (1998), Comput. Appl. Biosci., 8:481-487), allowing for comparison of control and mutated DNA. Mutation rate and mutation types were calculated from such a comparison.
# Taq polymerase = Taq polymerase (Thermus aquaticus, UniProt P19821); assay type: biochemical
# Taq polymerase, sequence (P19821 whole entry): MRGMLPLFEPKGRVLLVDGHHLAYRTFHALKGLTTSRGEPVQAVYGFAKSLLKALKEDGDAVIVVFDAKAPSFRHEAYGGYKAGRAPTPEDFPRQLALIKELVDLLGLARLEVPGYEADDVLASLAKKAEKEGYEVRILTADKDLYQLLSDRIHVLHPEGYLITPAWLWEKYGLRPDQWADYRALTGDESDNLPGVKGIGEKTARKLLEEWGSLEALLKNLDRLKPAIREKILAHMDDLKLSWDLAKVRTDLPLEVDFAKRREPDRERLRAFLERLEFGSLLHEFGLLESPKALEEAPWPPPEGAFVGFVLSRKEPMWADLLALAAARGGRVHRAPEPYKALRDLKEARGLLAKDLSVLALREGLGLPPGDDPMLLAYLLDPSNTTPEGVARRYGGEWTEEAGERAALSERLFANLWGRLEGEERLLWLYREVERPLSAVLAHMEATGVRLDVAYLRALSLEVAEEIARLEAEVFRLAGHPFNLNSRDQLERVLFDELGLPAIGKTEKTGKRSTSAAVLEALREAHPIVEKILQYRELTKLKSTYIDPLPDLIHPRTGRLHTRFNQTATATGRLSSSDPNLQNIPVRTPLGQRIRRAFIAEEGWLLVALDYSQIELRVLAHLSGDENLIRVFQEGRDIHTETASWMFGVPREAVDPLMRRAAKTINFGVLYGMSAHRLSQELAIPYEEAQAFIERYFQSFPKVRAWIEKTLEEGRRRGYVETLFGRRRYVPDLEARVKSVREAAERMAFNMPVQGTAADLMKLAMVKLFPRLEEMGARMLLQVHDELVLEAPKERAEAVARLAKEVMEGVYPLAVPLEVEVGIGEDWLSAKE
# Taq DNA polymerase [2] = target: T2, Taq DNA polymerase (Thermus aquaticus, UniProt P19821); assay type: biochemical
# T2 sequence (P19821 whole entry): as above
# Ventr (exo-) polymerase = target: T3, Ventr (exo-) polymerase (Thermococcus litoralis, UniProt P30317, D141A/DEL1082-1471/DEL495-1032/E143A); assay type: biochemical; details: for Amplification yield (% of C+): Ventr (exo-), 0.5 mM MnCl2
# T3 construct: purchased New England Biolabs
# T3 sequence (P30317 other isoform, or with tags, fused parts or gaps D141A/E143A/DEL495-1032/DEL1082-1471): as the sequence (P30317 other isoform, or with tags, fused parts or gaps D141A/E143A/DEL495-1032/DEL1082-1471) above
# Protocol: as §1, §2
# Enzymatic activity of DNA polymerases has been determined by ethidium bromide staining of 1% agarose gel. Band intensity of 2 μL aliquots of amplicon issued from mutagenic PCR were compared to the intensity of bands obtained from several dilutions of standard PCR.
# In order to assess the impact of the chemical stress induced by alcohols and urea on PCR, we measured the amplification yield was measured and compared it to that of a standard PCR. The size of a library generated by error-prone PCR is proportional to the amplification yield, therefore it is of a paramount importance to maintain the amplification yield as high as possible. Concentration of alcohol leading to a reduction in amplification yield was detected were chosen to determine their impact on amplified sequences. Such concentrations were defined as “critical” concentration of alcohol.
# [3] = target: Deep Ventr (exo-) polymerase (Pyrococcus sp., UniProt Q51334, D141A/DEL493-1029/E143A); assay type: biochemical, Pyrococcus species GB-D
# Deep Ventr (exo-) polymerase, sequence (Q51334 other isoform, or with tags, fused parts or gaps D141A/E143A/DEL493-1029): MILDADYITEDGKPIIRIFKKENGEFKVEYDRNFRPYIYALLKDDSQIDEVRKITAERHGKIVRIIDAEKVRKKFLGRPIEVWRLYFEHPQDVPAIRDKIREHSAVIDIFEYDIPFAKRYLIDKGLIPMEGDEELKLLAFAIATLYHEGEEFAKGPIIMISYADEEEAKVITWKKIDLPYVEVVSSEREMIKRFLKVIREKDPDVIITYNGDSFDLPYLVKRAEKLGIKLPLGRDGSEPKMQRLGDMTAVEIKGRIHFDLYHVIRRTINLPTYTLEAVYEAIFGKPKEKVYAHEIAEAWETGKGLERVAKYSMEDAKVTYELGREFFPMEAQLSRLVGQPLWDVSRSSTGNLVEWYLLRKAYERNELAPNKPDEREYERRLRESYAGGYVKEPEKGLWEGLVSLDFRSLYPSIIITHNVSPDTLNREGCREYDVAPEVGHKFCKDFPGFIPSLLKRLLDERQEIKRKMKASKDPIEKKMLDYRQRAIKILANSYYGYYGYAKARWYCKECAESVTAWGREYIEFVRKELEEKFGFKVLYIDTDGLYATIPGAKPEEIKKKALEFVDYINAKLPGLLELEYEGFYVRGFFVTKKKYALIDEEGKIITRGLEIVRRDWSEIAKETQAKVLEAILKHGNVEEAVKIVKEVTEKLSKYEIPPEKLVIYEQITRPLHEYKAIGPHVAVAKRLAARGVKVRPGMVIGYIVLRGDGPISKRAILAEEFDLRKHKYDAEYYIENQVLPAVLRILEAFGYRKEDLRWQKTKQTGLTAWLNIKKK
# Taq DNA polymerase [4] = target: T2, Taq DNA polymerase; details: 0.5 mM MnCl2, Equimolar dNTPs
# Protocol: (§3) 100ng of genomic DNA from Actinobacillus pleuropneumoniae was used as template. PCR cycles were as follows: 7 min at 95° C., then 30 cycles of polymerisation [45 s at 95° C., 45 s at 53° C., 1 min at 72°^C].
# [5] = target: T1, Ventr (exo-) DNA polymerase; experiment: PCR measuring maximal length of amplification; assay type: biochemical
# Protocol: as §3
# [6] = Taq polymerase, concentration leading to reduction in amplification yield
# [7] = Ventr (exo-) polymerase, concentration leading to reduction in amplification yield
# [8] = concentration leading to reduction in amplification yield
# [9] = Ventr (exo-), 0.5 mM MnCl2, AG/CT = 1/4
# [10] = Ventr (exo-), 0.5 mM MnCl2, AG/CT = 1/4, % of total mutations
# [11] = Ventr (exo-), 0.5 mM MnCl2, AT/GC = 1/4
# [12] = Ventr (exo-), 0.5 mM MnCl2, AT/GC = 1/4, % of total mutations
# [13] = Ventr (exo-), 0.5 mM MnCl2, Equimolar dNTPs
# [14] = Ventr (exo-), 0.5 mM MnCl2, Equimolar dNTPs, % of total mutations
# [15] = Ventr (exo-), 0.5 mM MnCl2, Equimolar dNTPs, listed as manganese
# [16] = Taq, 0.5 mM MnCl2, Equimolar dNTPs
# [17] = Taq, 0.5 mM MnCl2, Equimolar dNTPs, % of total mutations
compound,measurement,setting,value
NC(N)=O [Urea],mutation detected in PCR,"[1]; Ventr (exo-), critical concentration of urea, more than 2000 nucleotides sequenced",did not detect mutation
same,Critical concentration,Taq polymerase; [6],1.2 % v/v
same,Critical concentration,"Taq polymerase; Taq polymerase, in molar",(0.20 M)
same,mutation detected in PCR,"Taq DNA polymerase [2]; Taq, critical concentration of urea, more than 2000 nucleotides sequenced",did not detect mutation
same,Critical concentration,Ventr (exo-) polymerase; [7],1.5 % v/v
same,Critical concentration,"Ventr (exo-) polymerase; Ventr (exo-) polymerase, in molar",(0.25 M)
same,Critical concentration,[3]; [8],1.5 % v/v
same,Critical concentration,[3]; in molar,(0.25 M)
manganese chloride [MnCl2],Deletion Frequency,[1]; [9],0.03%
same,Mutation Frequency,[1]; [9],2.30%
same,"Bias indicator A, T turns N",[1]; [10],30%
same,"Bias indicator G, C turns N",[1]; [10],67%
same,"Bias indicator N turns A, T",[1]; [10],73%
same,Deletion Frequency,[1]; [11],0.00%
same,Mutation Frequency,[1]; [11],0.52%
same,"Bias indicator A, T turns N",[1]; [12],88%
same,"Bias indicator G, C turns N",[1]; [12],12%
same,"Bias indicator N turns A, T",[1]; [12],25%
same,Deletion Frequency,[1]; [13],0.00%
same,Mutation Frequency,[1]; [13],3.70%
same,"Bias indicator A, T turns N",[1]; [14],23%
same,"Bias indicator G, C turns N",[1]; [14],77%
same,"Bias indicator N turns A, T",[1]; [14],83%
same,Deletion Frequency,[1]; [15],without insertion or deletion
same,Mutation Frequency,[1]; [15],3.7%
same,Amplification yield (% of C+),Taq polymerase; [16],75 % of C+
same,Maximal lenght of amplification,Taq DNA polymerase [4],0.4 kb
same,Deletion Frequency,Taq DNA polymerase [2]; [16],0.04%
same,Mutation Frequency,Taq DNA polymerase [2]; [16],8.48%
same,"Bias indicator A, T turns N",Taq DNA polymerase [2]; [17],72%
same,"Bias indicator G, C turns N",Taq DNA polymerase [2]; [17],24%
same,"Bias indicator N turns A, T",Taq DNA polymerase [2]; [17],43%
same,Amplification yield (% of C+),Ventr (exo-) polymerase; AG/CT = 1/4,75 % of C+
same,Amplification yield (% of C+),Ventr (exo-) polymerase; AT/GC = 1/4,75 % of C+
same,Amplification yield (% of C+),Ventr (exo-) polymerase; Equimolar dNTPs,75 % of C+
same,Maximal lenght of amplification,"[5]; 0.5 mM MnCl2, AG/CT = 1/4",0.8 kb
same,Maximal lenght of amplification,"[5]; 0.5 mM MnCl2, AT/GC = 1/4",1.6 kb
same,Maximal lenght of amplification,"[5]; 0.5 mM MnCl2, Equimolar dNTPs",0.8 kb
Butanol,Critical concentration,Taq polymerase; [6],1.0 % v/v
same,Critical concentration,Ventr (exo-) polymerase; [7],4.0 % v/v
same,Critical concentration,[3]; [8],6.0 % v/v
"CCCO [Propanol, 1-propanol]","Bias indicator A, T turns N",[1],25% and 24% and 14%
same,"Bias indicator G, C turns N",[1],67% and 62% and 86%
same,"Bias indicator N turns A, T",[1],67% and 71%
same,Mutation Frequency,[1],0.98% and 0.27% and 0.58%
same,"mutation of guanines and cytosines, of total mutations",[1],67%
same,Amplification yield (% of C+),Taq polymerase,50 % of C+
same,Critical concentration,Taq polymerase,2.5 % v/v
same,polymerisation activity,Taq polymerase,no polymerisation activity
same,Deletion Frequency,Taq DNA polymerase [2],0.04%
same,Mutation Frequency,Taq DNA polymerase [2],0.13%
same,mutations found,Taq DNA polymerase [2],3
same,Critical concentration,Ventr (exo-) polymerase,8.0 % v/v
same,polymerisation activity,Ventr (exo-) polymerase,no polymerisation activity
same,Critical concentration,[3]; [8],8.0 % v/v
CC(C)O [Isopropanol],Critical concentration,Ventr (exo-) polymerase; [7],10.0 % v/v
